Test results published in patent US20220062258A1, “Heterocyclic derivatives” (Merck Patent GmbH, priority 2019, published 2022).

What was measured:
[1] = molecular target: T1, MetAP-2 (Homo sapiens, UniProt P50579); test: Degradation of MetAP-2 in HCT116 cells (Western blot, MetAp2/GAPDH signal); assay type: cell-based; parameters: endogenous in cells; host or cells: HCT116; conditions: for Signal MetAp2/GAPDH normalized to untreated (DMSO): 24 hrs, HTC116 cells, <1 means degradation; for reduction of MetAP-2 protein: after 24 h
Procedure: See scans below. […] The initial MetAP-2 degradation results were obtained after 24 h incubation of the compounds in three different concentrations (0.1; 1; 10 μM), cell lysis, SDS-PAGE separation, blotting and antibody aided detection.
Comparison of MetAP2 protein levels in HTC116 cells after compound treatments at different concentrations and time points. As control, DMSO was used and its values set as “1”. MetAp2 values <1 means degradation.
2. Exemplary Testing of the Compound
HCT116 cells were sown in 6-well plates. Pipette 1 mL fresh medium to every well and incubate for at least 1 h (37° C., 5% CO2, 95% rH).
Harvest and count cells in Vi-Cell. Equinr. 70198475 Adjust cell concentration to 0.35e^6 cells/mL and add 1 mL of cell suspension (total 0,35e^6 cells/well).
Incubate cells for 24 hours (37° C., 5% CO2, 95% rH)
HCT116: 24 h: ˜50% confluent before treatment
Compounds will be thawed the first time, stock: 10 mM; final concentration: 10 μM & 1 μM & 0.1 μM
Treatment with DMSO based solution with Digital Dispenser: HCT116 platte 2A1.jpg_meta.xml • create new dispensing protocol for compound • apply name of test compound and its stock concentration (in mM) for testing • 3×1:10 dilution series • final 0.3% DMSO, DMSO normalization for every well • shaking after compound/DMSO addition
Incubate cells for further 24 hours (37° C., 5% C02, 95% rH)
HCT116: 70-80% confluent before lysis • after incubation cells were lysed with RIPA lysis buffer including Halt™
all steps performed on ice or at 4° C. • aspirate supernatant from cells • wash cells twice with 2.0 mL ice cold PBS buffer • aspirate supernatant from cells after each washing step • lyse cells with 100 μL Ripa lysis buffer per well • scrape cells with cell scraper and transfer lysates to Eppendorf Cups • incubate for 15 min on ice • centrifuge […] at 13000×g and 4° C. • transfer supernatants to fresh Eppendorf cups • removal of 20 μL lysate for BCA assay • aliquot and freeze at −20° C.
Determination of protein concentration of lysates with BCA Protein Assay Kit. BSA supplied with the kit is 2 mg/mL.
Dilute the standard (Stock BSA concentration=2 mg/mL) in a 96 well plate: Samples were run 1:4. Dilute in lysing buffer, lysing buffer alone was run to determine the background from detergents in the assay.
BCA reagent: Dilute Reagent A and Reagent B in a 1:50 ratio. To 9.8 mL A add 200 μL B.
Assay Procedure: Pipette 5 μL/well of standard or samples to 96 wells (see plate layout). Samples were run in duplicate. Blanks=5 μL/well PBS or 5 μL/well lysing buffer. Add 100 μL/well of the prepared BCA reagent. Tap plate to mix or shake for 1-2 min on the Eppendorf mixer. Incubate at 37° C. for 30 min.
Read the OD at 562 nm. Plate was read on EnVision 2104 Multilabel Reader (Perkin Elmer, Equipment Number 70160330) last verification of instrument 17.08.2017 (once a year) (A25/531). AEH181012_BCA.csv
In EXCEL the duplicates were averaged and the average background PBS was subtracted for the standard curve.
A trend line was created, the intercept (b) was set at 0. The R^2 should be >0.950 for acceptable results. The lysate buffer blank was subtracted from the test values and the averaged, background-corrected O.D. values were used with the equation to calculate mg/ml and then were corrected for the dilution factor for the final mg/mL value. Only results from OD values within the range of the standard curve are acceptable. Values outside of the standard curve range are ignored. BCA AEH00350 Berechnung.xlsx
6. Sample Calculation and Preparation • thaw lysates of AEH00350 on ice • calculate sample volume for Western Blot loading 10 μg total protein/13 μL per slot: • dilute samples with lysis buffer and 10× reducing agent & 4×LDS buffer to 10 μg. • heat them at 70° C. for 10 min and 1000 rmp
7. […]

[2] = molecular target: T1, MetAP-2; test: as above; assay type: cell-based; parameters: endogenous in cells; host or cells: HCT116; conditions: for Signal MetAp2/GAPDH normalized to untreated (DMSO): HTC116 cells, <1 means degradation

T1 sequence (P50579 whole entry): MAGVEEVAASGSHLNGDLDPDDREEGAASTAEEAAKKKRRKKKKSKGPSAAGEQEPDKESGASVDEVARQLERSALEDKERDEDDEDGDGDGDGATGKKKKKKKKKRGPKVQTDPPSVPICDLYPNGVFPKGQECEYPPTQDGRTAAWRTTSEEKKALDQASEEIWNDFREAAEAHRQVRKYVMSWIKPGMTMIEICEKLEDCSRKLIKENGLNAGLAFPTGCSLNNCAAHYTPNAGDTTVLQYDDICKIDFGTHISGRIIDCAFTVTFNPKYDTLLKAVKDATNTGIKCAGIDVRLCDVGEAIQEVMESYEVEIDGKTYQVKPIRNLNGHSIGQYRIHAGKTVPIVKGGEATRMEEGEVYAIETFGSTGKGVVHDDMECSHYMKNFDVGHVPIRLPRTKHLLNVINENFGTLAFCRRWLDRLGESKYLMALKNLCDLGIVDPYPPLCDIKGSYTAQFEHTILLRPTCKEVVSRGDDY

O=C1CCC(N2C(=O)c3cccc(NCCOCCOCCOCCOCCOCCNC(=O)c4cc5cc(N6CCC(O)(C(=O)NCc7cc(F)cc(F)c7)C6=O)ccc5[nH]4)c3C2=O)C(=O)N1 (stereo not drawn) [Compound A1, 5-[3-[(3,5-difluorophenyl)methylcarbamoyl]-3-hydroxy-2-oxo-pyrrolidin-1-yl]-N-[2-[2-[2-[2-[2-[2-[[2-(2,6-dioxo-3-piperidyl)-1,3-dioxo-isoindolin-4-yl]amino]ethoxy]ethoxy]ethoxy]ethoxy]ethoxy]ethyl]-1H-indole-2-carboxamide]
Signal MetAp2/GAPDH normalized to untreated (DMSO) ([1]; 0.1 μM): 0.7
reduction of MetAP-2 protein ([1]; 0.1 μM): 30%
Signal MetAp2/GAPDH normalized to untreated (DMSO) ([1]; 1 μM): 0.6
Signal MetAp2/GAPDH normalized to untreated (DMSO) ([1]; 10 μM): 0.3
reduction of MetAP-2 protein ([1]; 10 μM): 70%
Signal MetAp2/GAPDH normalized to untreated (DMSO) ([2]; 0.1 μM, 6 hrs): 1.3
Signal MetAp2/GAPDH normalized to untreated (DMSO) ([2]; 1 μM, 6 hrs): 0.9
Signal MetAp2/GAPDH normalized to untreated (DMSO) ([2]; 1 μM, 48 hrs): 1.2
reduction of MetAP-2 protein ([2]; 1 μM, after 6 h): 15%
reduction of MetAP-2 protein ([2]; 1 μM, after 24 h): 40%
Signal MetAp2/GAPDH normalized to untreated (DMSO) ([2]; 10 μM, 6 hrs): 0.9
Signal MetAp2/GAPDH normalized to untreated (DMSO) ([2]; 10 μM, 48 hrs): 0.3
reduction of MetAP-2 protein ([2]; 10 μM, after 6 h): 10%
reduction of MetAP-2 protein ([2]; 10 μM, after 48 h): 70%

O=C1CCC(N2C(=O)c3ccc(NCCOCCOCCOCCOCCNC(=O)c4cc5cc(N6CCC(O)(C(=O)NCc7cc(F)cc(F)c7)C6=O)ccc5[nH]4)cc3C2=O)C(=O)N1 (stereo not drawn) [Compound A2, 5-[3-[(3,5-difluorophenyl)methylcarbamoyl]-3-hydroxy-2-oxo-pyrrolidin-1-yl]-N-[2-[2-[2-[2-[2-[[2-(2,6-dioxo-3-piperidyl)-1,3-dioxo-isoindolin-5-yl]amino]-ethoxy]ethoxy]ethoxy]ethoxy]ethyl]-1H-indole-2-carboxamide]
Signal MetAp2/GAPDH normalized to untreated (DMSO) ([1]; 0.1 μM): 1.2
Signal MetAp2/GAPDH normalized to untreated (DMSO) ([1]; 1 μM): 1.0
Signal MetAp2/GAPDH normalized to untreated (DMSO) ([1]; 10 μM): 0.6
reduction of MetAP-2 protein ([1]; 10 μM): 40%
Signal MetAp2/GAPDH normalized to untreated (DMSO) ([2]; 0.1 μM, 6 hrs): 1.3
Signal MetAp2/GAPDH normalized to untreated (DMSO) ([2]; 1 μM, 6 hrs): 1.6
Signal MetAp2/GAPDH normalized to untreated (DMSO) ([2]; 1 μM, 48 hrs): 1.5
Signal MetAp2/GAPDH normalized to untreated (DMSO) ([2]; 10 μM, 6 hrs): 1.1
Signal MetAp2/GAPDH normalized to untreated (DMSO) ([2]; 10 μM, 48 hrs): 0.8
reduction of MetAP-2 protein ([2]; 10 μM, after 48 h): 20%
